In this assay the target is T1, chicken gizzard smooth muscle myosin subfragment-1 chemically crosslinked to cardiac or skeletal actin (Gallus gallus, UniProt P10587).
T1 construct: chicken gizzard smooth muscle myosin subfragment-1; from tissue; host or cells: chicken gizzard
T1 sequence (P02607 2-151): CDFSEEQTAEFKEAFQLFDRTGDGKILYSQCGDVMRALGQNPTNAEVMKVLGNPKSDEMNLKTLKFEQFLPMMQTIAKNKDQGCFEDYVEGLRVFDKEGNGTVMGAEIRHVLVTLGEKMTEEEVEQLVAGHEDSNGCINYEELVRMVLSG
T1 sequence (P10587 84-789): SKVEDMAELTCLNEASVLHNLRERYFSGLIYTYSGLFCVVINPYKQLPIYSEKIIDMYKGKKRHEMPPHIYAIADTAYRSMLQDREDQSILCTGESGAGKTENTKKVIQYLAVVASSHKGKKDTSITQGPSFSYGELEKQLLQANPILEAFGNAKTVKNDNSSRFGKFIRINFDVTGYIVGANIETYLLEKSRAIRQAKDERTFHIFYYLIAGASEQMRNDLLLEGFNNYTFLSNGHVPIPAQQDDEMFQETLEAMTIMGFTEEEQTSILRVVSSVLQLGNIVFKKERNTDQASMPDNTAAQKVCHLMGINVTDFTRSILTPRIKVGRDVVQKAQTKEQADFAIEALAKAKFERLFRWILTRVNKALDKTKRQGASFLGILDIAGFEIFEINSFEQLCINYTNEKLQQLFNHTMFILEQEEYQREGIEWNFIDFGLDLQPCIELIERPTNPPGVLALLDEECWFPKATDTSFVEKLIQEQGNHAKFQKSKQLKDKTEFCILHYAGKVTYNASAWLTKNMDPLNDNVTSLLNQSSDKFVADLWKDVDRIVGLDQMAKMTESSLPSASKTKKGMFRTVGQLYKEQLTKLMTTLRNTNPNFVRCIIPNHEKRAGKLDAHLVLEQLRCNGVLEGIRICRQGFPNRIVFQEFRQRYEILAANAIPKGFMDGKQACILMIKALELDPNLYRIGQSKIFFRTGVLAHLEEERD
As to the kind of experiment: Smooth muscle myosin ATPase dose response assay (pyruvate kinase/horseradish peroxidase/pyruvate oxidase-coupled, amplex red fluorescence). The settings on record: read-out: IC50 Arithmetic Mean. Format: biochemical. The method, boiled down:
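Readout is amplex red signal from coupled ATPase of actin-crosslinked gizzard myosin S1 (0.15 mM ATP, 12 mM K-PIPES, pH 7.00). IC50 is the half-maximal activity point of a four-parameter Hill fit.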
In the case of `Cn1cc(-c2nc(NCCc3cccc(F)c3)c(C(=O)NC[C@H]3CCC(=O)N3CCCN)cc2C#N)cn1` [N-{[(2R)-1-(3-aminopropyl)-5-oxopyrrolidin-2-yl]methyl}(5-cyano-2-{[2-(3-fluorophenyl)ethyl]amino}-6-(1-methylpyrazol-4-yl)(3-pyridyl))carboxamide], the IC50 (commonly the concentration that inhibits the measured activity by half) is 310 nM.

On to `N#Cc1cc(C(=O)NC[C@H]2CCC(=O)N2CCCN)c(NCCc2cccc(F)c2)nc1-c1cn[nH]c1` [N-{[(2R)-1-(3-aminopropyl)-5-oxopyrrolidin-2-yl]methyl}(5-cyano-2-{[2-(3-fluorophenyl)ethyl]amino}-6-pyrazol-4-yl(3-pyridyl))carboxamide], for which the IC50 came to 735 nM.

With `Cn1cc(-c2nc(NCCc3cccc(F)c3)c(C(=O)NC[C@H]3CCC(=O)N3CCCN)cc2F)cn1` [N-{[(2R)-1-(3-aminopropyl)-5-oxopyrrolidin-2-yl]methyl}(5-fluoro-2-{[2-(3-fluorophenyl)ethyl]amino}-6-(1-methylpyrazol-4-yl)(3-pyridyl))carboxamide], the 50% inhibitory concentration (IC50) was found to be 79 nM.

Consider `NCCCN1C(=O)CC[C@@H]1CNC(=O)c1cc(F)c(-c2cn[nH]c2)nc1NCCc1cccc(F)c1` [N-{[(2R)-1-(3-aminopropyl)-5-oxopyrrolidin-2-yl]methyl}(5-fluoro-2-{[2-(3-fluorophenyl)ethyl]amino}-6-pyrazol-4-yl(3-pyridyl))carboxamide], for which the IC50 was 66 nM.

As to `N#Cc1ccccc1-c1ccc(C(=O)NC[C@H]2CCC(=O)N2CCCN)c(NCCc2cccc(F)c2)n1` [N-{[(2R)-1-(3-aminopropyl)-5-oxopyrrolidin-2-yl]methyl}(6-(2-cyanophenyl)-2-{[2-(3-fluorophenyl)ethyl]amino}(3-pyridyl))carboxamide], the IC50 was determined as 42 nM.

On to `Cc1cc(C(=O)NC[C@H]2CCC(=O)N2CCCN)c(NCCc2cccc(F)c2)nc1-c1ccccc1C#N` [N-{[(2R)-1-(3-aminopropyl)-5-oxopyrrolidin-2-yl]methyl}(6-(2-cyanophenyl)-2-{[2-(3-fluorophenyl)ethyl]amino}-5-methyl(3-pyridyl))carboxamide], for which the IC50 is 1230 nM.

For `N#Cc1ccccc1-c1nc(NCCc2cccc(F)c2)c(C(=O)NC[C@H]2CCC(=O)N2CCCN)cc1F` [N-{[(2R)-1-(3-aminopropyl)-5-oxopyrrolidin-2-yl]methyl}(6-(2-cyanophenyl)-5-fluoro-2-{[2-(3-fluorophenyl)ethyl]amino}(3-pyridyl))carboxamide], the IC50 was 42 nM.

`N#Cc1ccccc1-c1ccc(C(=O)NC[C@H]2CCCC(=O)N2CCCN)c(NCCc2cccc(F)c2)n1` [N-{[(2R)-1-(3-aminopropyl)-6-oxo(2-piperidyl)]methyl}(6-(2-cyanophenyl)-2-{[2-(3-fluorophenyl)ethyl]amino}(3-pyridyl))carboxamide]: the IC50 stood at 26 nM.

Regarding `Cn1cc(-c2ccc(C(=O)NC[C@H]3CNCC(=O)N3CCCN)c(NCCc3cccc(F)c3)n2)cn1` [N-{[(2R)-1-(3-aminopropyl)-6-oxopiperazin-2-yl]methyl}(2-{[2-(3-fluorophenyl)ethyl]amino}-6-(1-methylpyrazol-4-yl)(3-pyridyl))carboxamide], the IC50 came to 3560 nM.

`NCCCN1C(=O)CNC[C@@H]1CNC(=O)c1ccc(-c2cc[nH]n2)nc1NCCc1cccc(F)c1` [N-{[(2R)-1-(3-aminopropyl)-6-oxopiperazin-2-yl]methyl}(2-{[2-(3-fluorophenyl)ethyl]amino}-6-pyrazol-3-yl(3-pyridyl))carboxamide]: the IC50 was 9630 nM.

Consider `NCCCN1C(=O)CNC[C@@H]1CNC(=O)c1ccc(-c2cn[nH]c2)nc1NCCc1cccc(F)c1` [N-{[(2R)-1-(3-aminopropyl)-6-oxopiperazin-2-yl]methyl}(2-{[2-(3-fluorophenyl)ethyl]amino}-6-pyrazol-4-yl(3-pyridyl))carboxamide], for which the IC50 came out at 2340 nM.

As for `N#Cc1ccccc1-c1ccc(C(=O)NC[C@H]2CNCC(=O)N2CCCN)c(NCCc2cccc(F)c2)n1` [N-{[(2R)-1-(3-aminopropyl)-6-oxopiperazin-2-yl]methyl}(6-(2-cyanophenyl)-2-{[2-(3-fluorophenyl)ethyl]amino}(3-pyridyl))carboxamide], the IC50 was 318 nM.

As for `N#Cc1ccccc1-c1ccc(C(=O)NC[C@H]2CCCCN2C(=O)CCCN)c(NCCc2cccc(F)c2)n1` [N-{[(2R)-1-(4-aminobutanoyl)(2-piperidyl)]methyl}(6-(2-cyanophenyl)-2-{[2-(3-fluorophenyl)ethyl]amino}(3-pyridyl))carboxamide], the IC50 was 83 nM.

Turning to `Cn1cc(-c2nc(NCCc3cccc(F)c3)c(C(=O)NC[C@H]3CCN3C(=O)CCCN)cc2F)cn1` [N-{[(2R)-1-(4-aminobutanoyl)azetidin-2-yl]methyl}(5-fluoro-2-{[2-(3-fluorophenyl)ethyl]amino}-6-(1-methylpyrazol-4-yl)(3-pyridyl))carboxamide], the IC50 amounted to 40 nM.

Turning to `N#Cc1ccccc1-c1ccc(C(=O)NC[C@H]2CCN2C(=O)CCCN)c(NCCc2cccc(F)c2)n1` [N-{[(2R)-1-(4-aminobutanoyl)azetidin-2-yl]methyl}(6-(2-cyanophenyl)-2-{[2-(3-fluorophenyl)ethyl]amino}(3-pyridyl))carboxamide], the concentration for half-maximal inhibition (IC50) amounted to 25 nM.

With `N#Cc1ccccc1-c1ccc(C(=O)NC[C@H]2CNCCN2C(=O)CCCN)c(NCCc2cccc(F)c2)n1` [N-{[(2R)-1-(4-aminobutanoyl)piperazin-2-yl]methyl}(6-(2-cyanophenyl)-2-{[2-(3-fluorophenyl)ethyl]amino}(3-pyridyl))carboxamide], the IC50 is 5480 nM.

As to `N#Cc1ccccc1-c1ccc(C(=O)NC[C@H]2CCCN2C(=O)CCCN)c(NCCc2cc(F)cc(F)c2)n1` [N-{[(2R)-1-(4-aminobutanoyl)pyrrolidin-2-yl]methyl}(2-{[2-(3,5-difluorophenyl)ethyl]amino}-6-(2-cyanophenyl)(3-pyridyl))carboxamide], the IC50 was 23 nM.

In the case of `Cc1cc(C(=O)NC[C@H]2CCCN2C(=O)CCCN)c(NCCc2cccc(F)c2)nc1-c1cnn(C)c1` [N-{[(2R)-1-(4-aminobutanoyl)pyrrolidin-2-yl]methyl}(2-{[2-(3-fluorophenyl)ethyl]amino}-5-methyl-6-(1-methylpyrazol-4-yl)(3-pyridyl))carboxamide], the IC50 was 381 nM.

Turning to `Cn1cc(-c2ccc(C(=O)NC[C@H]3CCCN3C(=O)CCCN)c(NCCc3cccc(F)c3)n2)cn1` [N-{[(2R)-1-(4-aminobutanoyl)pyrrolidin-2-yl]methyl}(2-{[2-(3-fluorophenyl)ethyl]amino}-6-(1-methylpyrazol-4-yl)(3-pyridyl))carboxamide], the IC50 worked out at 351 nM.

Consider `Cn1cc(-c2nc(NCCc3cccc(F)c3)c(C(=O)NC[C@H]3CCCN3C(=O)CCCN)cc2Cl)cn1` [N-{[(2R)-1-(4-aminobutanoyl)pyrrolidin-2-yl]methyl}(5-chloro-2-{[2-(3-fluorophenyl)ethyl]amino}-6-(1-methylpyrazol-4-yl)(3-pyridyl))carboxamide], for which the half-maximal inhibitory concentration (IC50) amounted to 47 nM.

For `Cn1cc(-c2nc(NCCc3cccc(F)c3)c(C(=O)NC[C@H]3CCCN3C(=O)CCCN)cc2C#N)cn1` [N-{[(2R)-1-(4-aminobutanoyl)pyrrolidin-2-yl]methyl}(5-cyano-2-{[2-(3-fluorophenyl)ethyl]amino}-6-(1-methylpyrazol-4-yl)(3-pyridyl))carboxamide], the IC50 came to 211 nM.

As to `N#Cc1cc(C(=O)NC[C@H]2CCCN2C(=O)CCCN)c(NCCc2cccc(F)c2)nc1-c1cn[nH]c1` [N-{[(2R)-1-(4-aminobutanoyl)pyrrolidin-2-yl]methyl}(5-cyano-2-{[2-(3-fluorophenyl)ethyl]amino}-6-pyrazol-4-yl(3-pyridyl))carboxamide], the IC50 came out at 359 nM.

For the compound `Cn1cc(-c2nc(NCCc3cccc(F)c3)c(C(=O)NC[C@H]3CCCN3C(=O)CCCN)cc2F)cn1` [N-{[(2R)-1-(4-aminobutanoyl)pyrrolidin-2-yl]methyl}(5-fluoro-2-{[2-(3-fluorophenyl)ethyl]amino}-6-(1-methylpyrazol-4-yl)(3-pyridyl))carboxamide], the IC50 is 87 nM.

With `NCCCC(=O)N1CCCC1CNC(=O)c1cc(F)c(-c2cc[nH]n2)nc1NCCc1cccc(F)c1` [N-{[(2R)-1-(4-aminobutanoyl)pyrrolidin-2-yl]methyl}(5-fluoro-2-{[2-(3-fluorophenyl)ethyl]amino}-6-pyrazol-3-yl(3-pyridyl))carboxamide], the 50% inhibitory concentration (IC50) came to 169 nM.

For `NCCCC(=O)N1CCC[C@@H]1CNC(=O)c1cc(F)c(-c2cn[nH]c2)nc1NCCc1cccc(F)c1` [N-{[(2R)-1-(4-aminobutanoyl)pyrrolidin-2-yl]methyl}(5-fluoro-2-{[2-(3-fluorophenyl)ethyl]amino}-6-pyrazol-4-yl(3-pyridyl))carboxamide], the IC50 is 47 nM.

For `N#Cc1ccccc1-c1ccc(C(=O)NC[C@H]2CCCN2C(=O)CCCN)c(NCCc2cccc(F)c2)n1` [N-{[(2R)-1-(4-aminobutanoyl)pyrrolidin-2-yl]methyl}(6-(2-cyanophenyl)-2-{[2-(3-fluorophenyl)ethyl]amino}(3-pyridyl))carboxamide], the IC50 turned out to be 29 nM.

As to `N#Cc1ccccc1-c1nc(NCCc2cccc(F)c2)c(C(=O)NC[C@H]2CCCN2C(=O)CCCN)cc1F` [N-{[(2R)-1-(4-aminobutanoyl)pyrrolidin-2-yl]methyl}(6-(2-cyanophenyl)-5-fluoro-2-{[2-(3-fluorophenyl)ethyl]amino}(3-pyridyl))carboxamide], the IC50 was found to be 38 nM.

In the case of `N#Cc1ccccc1-c1ccc(C(=O)NC[C@H]2CCCN2C(=O)CCCN)c(NCCC2=CCCCC2)n1` [N-{[(2R)-1-(4-aminobutanoyl)pyrrolidin-2-yl]methyl}{6-(2-cyanophenyl)-2-[(2-cyclohex-1-enylethyl)amino](3-pyridyl)}carboxamide], the IC50 is 133 nM.

As for `N#Cc1ccccc1-c1ccc(C(=O)NC[C@H]2CCCN2C(=O)CCCN)c(NCCc2ccccc2)n1` [N-{[(2R)-1-(4-aminobutanoyl)pyrrolidin-2-yl]methyl}{6-(2-cyanophenyl)-2-[(2-phenylethyl)amino](3-pyridyl)}carboxamide], the IC50 is 62 nM.

These data come from US7932270B2 (Cytokinetics, Inc., priority 2006, dated 2011).
